The values that follow are results of earlier work, collected in patent publication EP0349514A1, “Prolonged-release pharmaceutical composition containing erythromycine, its preparation and its use” (priority 1988, dated 1990).

For this data set the following is noted: plasma.

As for `CC[C@H]1OC(=O)[C@H](C)[C@@H](O[C@H]2C[C@@](C)(OC)[C@@H](O)[C@H](C)O2)[C@H](C)[C@@H](O[C@@H]2O[C@H](C)C[C@H](N(C)C)[C@H]2O)[C@](C)(O)C[C@@H](C)C(=O)[C@H](C)[C@@H](O)[C@]1(C)O` [érythromycine], the “temps de demi-vie plasmatique t 1/2” value is 1,6 h.
